# Measured values: ChEMBL document CHEMBL3792337, “Cardiac Glycosides from the Seeds of Thevetia peruviana” (J Nat Prod, 2016)
# Columns and labels:
# [1] = Cytotoxicity against human P15 cells after 48 hrs by MTT assay; format: functional, cell-based; details: P15, 48 h
# [2] = Cytotoxicity against human MGC803 cells after 48 hrs by MTT assay; format: functional, cell-based; details: MGC-803, 48 h
# SW1990 = test: Cytotoxicity against human SW1990 cells after 48 hrs by MTT assay; format: functional, cell-based; details: SW1990, 48 h
# [3] = Cytotoxicity against human LO2 cells after 48 hrs by MTT assay; format: cell-based; details: L02, 48 h
smiles,measurement,setting,value
CO[C@H]1[C@H](O)[C@H](O[C@H]2CC[C@@]3(C=O)[C@H](CC[C@@H]4[C@@H]3CC[C@]3(C)[C@@H](C5=CC(=O)OC5)CC[C@]43O)C2)O[C@@H](C)[C@@H]1O [PERUVOSIDE],IC50,[1],0.03 µM
same,IC50,[2],0.02 µM
same,IC50,SW1990,0.02 µM
same,IC50,[3],> 10 µM
CO[C@H]1[C@H](OC(C)=O)[C@H](O[C@H]2CC[C@@]3(C)[C@@H](CC[C@@H]4[C@@H]3CC[C@]3(C)[C@@H](C5=CC(=O)OC5)CC[C@]43O)C2)O[C@@H](C)[C@@H]1O[C@H]1O[C@@H](CO[C@@H]2O[C@H](CO)[C@@H](O)[C@H](O)[C@H]2O)[C@H](O)[C@@H](O)[C@@H]1O,IC50,[1],> 10 µM
same,IC50,[2],10 µM
same,IC50,SW1990,> 10 µM
same,IC50,[3],> 10 µM
CO[C@H]1[C@H](OC(C)=O)[C@H](O[C@H]2CC[C@@]3(C)[C@H](CC[C@@H]4[C@@H]3CC[C@]3(C)[C@@H](C5=CC(=O)OC5)CC[C@]43O)C2)O[C@@H](C)[C@@H]1O[C@H]1O[C@@H](CO[C@@H]2O[C@H](CO)[C@@H](O)[C@H](O)[C@H]2O)[C@H](O)[C@@H](O)[C@@H]1O,IC50,[1],4.75 µM
same,IC50,[2],7.04 µM
same,IC50,SW1990,5.82 µM
same,IC50,[3],> 10 µM
CO[C@@H]1[C@H](O)[C@@H](O[C@@H]2CC[C@]3(CO)[C@@H](CC[C@H]4[C@H]3CC[C@@]3(C)[C@H](C5=CC(=O)OC5)CC[C@@]43O)C2)O[C@H](C)[C@H]1O[C@@H]1O[C@H](CO)[C@@H](O)[C@H](O)[C@H]1O,IC50,[1],4.91 µM
same,IC50,[2],5.75 µM
same,IC50,SW1990,2.14 µM
same,IC50,[3],> 10 µM
CO[C@H]1[C@@H](O)[C@H](O[C@H]2CC[C@@]3(C)[C@H](CC[C@@H]4[C@@H]3CC[C@]3(C)[C@@H](C5=CC(=O)OC5)CC[C@]43O)C2)O[C@@H](C)[C@@H]1O[C@H]1O[C@@H](CO[C@@H]2O[C@H](CO)[C@@H](O)[C@H](O)[C@H]2O)[C@H](O)[C@@H](O)[C@@H]1O,IC50,[1],6.02 µM
same,IC50,[2],1.93 µM
same,IC50,SW1990,7.28 µM
same,IC50,[3],> 10 µM
O=c1[nH]cc(F)c(=O)[nH]1 [FLUOROURACIL],IC50,[1],89.2 µM
same,IC50,[2],68.3 µM
same,IC50,SW1990,126 µM
same,IC50,[3],> 10 µM
CO[C@H]1[C@H](O)[C@H](O[C@H]2CC[C@@]3(C)[C@H](CC[C@@H]4[C@@H]3CC[C@]3(C)[C@@H](C5=CC(=O)OC5)CC[C@]43O)C2)O[C@@H](C)[C@@H]1O[C@H]1O[C@@H](CO)[C@H](O)[C@@H](O)[C@@H]1O,IC50,[1],0.4 µM
same,IC50,[2],0.42 µM
same,IC50,SW1990,0.62 µM
same,IC50,[3],> 10 µM
CO[C@H]1[C@H](O)[C@H](O[C@H]2CC[C@@]3(OO)[C@H](CC[C@@H]4[C@@H]3CC[C@]3(C)[C@@H](C5=CC(=O)OC5)CC[C@]43O)C2)O[C@@H](C)[C@@H]1O[C@@H]1O[C@H](CO[C@@H]2O[C@H](CO)[C@@H](O)[C@H](O)[C@H]2O)[C@@H](O)[C@H](O)[C@H]1O,IC50,[1],> 10 µM
same,IC50,[2],> 10 µM
same,IC50,SW1990,3.62 µM
same,IC50,[3],> 10 µM
CO[C@@H]1[C@@H](O)[C@@H](O[C@@H]2CC[C@]3(OO)[C@@H](CC[C@H]4[C@H]3CC[C@@]3(C)[C@H](C5=CC(=O)OC5)CC[C@@]43O)C2)O[C@H](C)[C@H]1O[C@@H]1O[C@H](CO)[C@@H](O)[C@H](O)[C@H]1O,IC50,[1],7.29 µM
same,IC50,[2],> 10 µM
same,IC50,SW1990,> 10 µM
same,IC50,[3],> 10 µM
CO[C@H]1[C@H](O)[C@H](O[C@H]2CC[C@@]3(O)[C@H](CC[C@@H]4[C@@H]3CC[C@]3(C)[C@@H](C5=CC(=O)OC5)CC[C@]43O)C2)O[C@@H](C)[C@@H]1O[C@@H]1O[C@H](CO[C@@H]2O[C@H](CO)[C@@H](O)[C@H](O)[C@H]2O)[C@@H](O)[C@H](O)[C@H]1O,IC50,[1],> 10 µM
same,IC50,[2],> 10 µM
same,IC50,SW1990,> 10 µM
same,IC50,[3],> 10 µM
CO[C@H]1[C@H](O)[C@H](O[C@H]2CC[C@@]3(O)[C@H](CC[C@@H]4[C@@H]3CC[C@]3(C)[C@@H](C5=CC(=O)OC5)CC[C@]43O)C2)O[C@@H](C)[C@@H]1O,IC50,[1],1.52 µM
same,IC50,[2],2.14 µM
same,IC50,SW1990,0.49 µM
same,IC50,[3],> 10 µM
CO[C@H]1[C@H](O)[C@H](O[C@H]2CC[C@@]3(C(=O)O)[C@H](CC[C@@H]4[C@@H]3CC[C@]3(C)[C@@H](C5=CC(=O)OC5)CC[C@]43O)C2)O[C@@H](C)[C@@H]1O,IC50,[1],> 10 µM
same,IC50,[2],3.93 µM
same,IC50,SW1990,> 10 µM
same,IC50,[3],> 10 µM
CO[C@H]1[C@H](OC(C)=O)[C@H](O[C@H]2CC[C@@]3(C)[C@H](CC[C@@H]4[C@@H]3CC[C@]3(C)[C@@H](C5=CC(=O)OC5)CC[C@]43O)C2)O[C@@H](C)[C@@H]1O[C@H]1O[C@@H](CO)[C@H](O)[C@@H](O)[C@@H]1O,IC50,[1],2.84 µM
same,IC50,[2],3.21 µM
same,IC50,SW1990,1.84 µM
same,IC50,[3],> 10 µM
CO[C@H]1[C@H](O)[C@H](O[C@H]2CC[C@@]3(O)[C@H](CC[C@@H]4[C@@H]3CC[C@]3(C)[C@@H](C5=CC(=O)OC5)CC[C@]43O)C2)O[C@@H](C)[C@@H]1O[C@H]1O[C@@H](CO)[C@H](O)[C@@H](O)[C@@H]1O,IC50,[1],> 10 µM
same,IC50,[2],> 10 µM
same,IC50,SW1990,> 10 µM
same,IC50,[3],> 10 µM
CO[C@H]1[C@H](O)[C@H](O[C@H]2CC[C@H]3[C@H](CC[C@@H]4[C@@H]3CC[C@]3(C)[C@@H](C5=CC(=O)OC5)CC[C@]43O)C2)O[C@@H](C)[C@@H]1O[C@@H]1O[C@H](CO[C@@H]2O[C@H](CO)[C@@H](O)[C@H](O)[C@H]2O)[C@@H](O)[C@H](O)[C@H]1O,IC50,[1],> 10 µM
same,IC50,[2],8.18 µM
same,IC50,SW1990,3.13 µM
same,IC50,[3],> 10 µM
CO[C@H]1[C@H](O)[C@H](O[C@@H]2CC[C@]3(C(=O)O)[C@@H](CC[C@H]4[C@H]3CC[C@@]3(C)[C@H](C5=CC(=O)OC5)CC[C@@]43O)C2)O[C@@H](C)[C@@H]1O[C@H]1O[C@@H](CO[C@@H]2O[C@H](CO)[C@@H](O)[C@H](O)[C@H]2O)[C@H](O)[C@@H](O)[C@@H]1O,IC50,[1],> 10 µM
same,IC50,[2],> 10 µM
same,IC50,SW1990,> 10 µM
same,IC50,[3],> 10 µM
CO[C@@H]1[C@@H](O)[C@@H](O[C@@H]2CC[C@]3(C=O)[C@@H](CC[C@H]4[C@H]3CC[C@@]3(C)[C@H](C5=CC(=O)OC5)CC[C@@]43O)C2)O[C@H](C)[C@H]1O[C@@H]1O[C@H](CO)[C@@H](O)[C@H](O)[C@H]1O,IC50,[1],1.46 µM
same,IC50,[2],5.32 µM
same,IC50,SW1990,0.64 µM
same,IC50,[3],> 10 µM
CO[C@H]1[C@H](O)[C@H](O[C@H]2CC[C@@]3(C)[C@@H](CC[C@@H]4[C@@H]3CC[C@]3(C)[C@@H](C5=CC(=O)OC5)CC[C@]43O)C2)O[C@@H](C)[C@@H]1O[C@H]1O[C@@H](CO)[C@H](O)[C@@H](O)[C@@H]1O,IC50,[1],2.68 µM
same,IC50,[2],3.42 µM
same,IC50,SW1990,4.54 µM
same,IC50,[3],> 10 µM
CO[C@@H]1[C@@H](O)[C@@H](O[C@@H]2CC[C@]3(CO)[C@@H](CC[C@H]4[C@H]3CC[C@@]3(C)[C@H](C5=CC(=O)OC5)CC[C@@]43O)C2)O[C@H](C)[C@H]1O[C@@H]1O[C@H](CO)[C@@H](O)[C@H](O)[C@H]1O,IC50,[1],0.12 µM
same,IC50,[2],0.32 µM
same,IC50,SW1990,0.13 µM
same,IC50,[3],> 10 µM
CO[C@H]1[C@H](O)[C@H](O[C@H]2CC[C@@]3(C)[C@@H](CC[C@@H]4[C@@H]3CC[C@]3(C)[C@@H](C5=CC(=O)OC5)CC[C@]43O)C2)O[C@@H](C)[C@@H]1O[C@H]1O[C@@H](CO[C@@H]2O[C@H](CO)[C@@H](O)[C@H](O)[C@H]2O)[C@H](O)[C@@H](O)[C@@H]1O,IC50,[1],10 µM
same,IC50,[2],8.32 µM
same,IC50,SW1990,> 10 µM
same,IC50,[3],> 10 µM
CO[C@H]1[C@H](OC(C)=O)[C@H](O[C@@H]2CC[C@]3(C=O)[C@@H](CC[C@H]4[C@H]3CC[C@@]3(C)[C@H](C5=CC(=O)OC5)CC[C@@]43O)C2)O[C@@H](C)[C@@H]1O[C@H]1O[C@@H](CO)[C@H](O)[C@@H](O)[C@@H]1O,IC50,[1],0.59 µM
same,IC50,[2],1.23 µM
same,IC50,SW1990,0.97 µM
same,IC50,[3],> 10 µM
CO[C@H]1[C@H](O)[C@H](O[C@H]2CC[C@H]3[C@H](CC[C@@H]4[C@@H]3CC[C@]3(C)[C@@H](C5=CC(=O)OC5)CC[C@]43O)C2)O[C@@H](C)[C@@H]1O[C@H]1O[C@@H](CO)[C@H](O)[C@@H](O)[C@@H]1O,IC50,[1],3.35 µM
same,IC50,[2],> 10 µM
same,IC50,SW1990,8.1 µM
same,IC50,[3],> 10 µM
CO[C@H]1[C@@H](O)[C@H](O[C@H]2CC[C@@]3(C)[C@H](CC[C@@H]4[C@@H]3CC[C@]3(C)[C@@H](C5=CC(=O)OC5)CC[C@]43O)C2)O[C@@H](C)[C@@H]1O[C@H]1O[C@@H](CO)[C@H](O)[C@@H](O)[C@@H]1O,IC50,[1],1.5 µM
same,IC50,[2],> 10 µM
same,IC50,SW1990,1.69 µM
same,IC50,[3],> 10 µM
CO[C@@H]1[C@@H](O)[C@@H](O[C@H]2CC[C@@]3(C(=O)O)[C@H](CC[C@@H]4[C@@H]3CC[C@]3(C)[C@@H](C5=CC(=O)OC5)CC[C@]43O)C2)O[C@H](C)[C@H]1O[C@@H]1O[C@H](CO)[C@@H](O)[C@H](O)[C@H]1O,IC50,[1],> 10 µM
same,IC50,[2],> 10 µM
same,IC50,SW1990,> 10 µM
same,IC50,[3],> 10 µM
CO[C@H]1[C@H](OC(C)=O)[C@H](O[C@@H]2CC[C@]3(C=O)[C@@H](CC[C@H]4[C@H]3CC[C@@]3(C)[C@H](C5=CC(=O)OC5)CC[C@@]43O)C2)O[C@@H](C)[C@@H]1O[C@H]1O[C@@H](CO[C@@H]2O[C@H](CO)[C@@H](O)[C@H](O)[C@H]2O)[C@H](O)[C@@H](O)[C@@H]1O,IC50,[1],> 10 µM
same,IC50,[2],9.53 µM
same,IC50,SW1990,> 10 µM
same,IC50,[3],> 10 µM
CO[C@H]1[C@@H](O)[C@H](O[C@H]2CC[C@@]3(C)[C@@H](CC[C@@H]4[C@@H]3CC[C@]3(C)[C@@H](C5=CC(=O)OC5)CC[C@]43O)C2)O[C@@H](C)[C@@H]1O[C@H]1O[C@@H](CO[C@@H]2O[C@H](CO)[C@@H](O)[C@H](O)[C@H]2O)[C@H](O)[C@@H](O)[C@@H]1O,IC50,[1],10 µM
same,IC50,[2],6.56 µM
same,IC50,SW1990,> 10 µM
same,IC50,[3],> 10 µM
